In data set [1] the test system is Diabrotica balteata. Description: Example B1: Diabrotica balteata (corn root worm), maize sprouts sprayed. It is filed as in vivo. The conditions noted are these: 96 h, application rate 200 ppm, L2 larvae, 4 days after infestation, vs untreated, read-out: control in at least one of the two categories (mortality or growth inhibition). On the procedure:
Example B1: Diabrotica balteata (Corn Root Worm)
Maize sprouts placed onto an agar layer in 24-well microtiter plates were treated with aqueous test solutions prepared from 10′000 ppm DMSO stock solutions by spraying. After drying, the plates were infested with L2 larvae (6 to 10 per well). The samples were assessed for mortality and growth inhibition in comparison to untreated samples 4 days after infestation.
(§1) The following compounds gave an effect of at least 80% control in at least one of the two categories (mortality or growth inhibition) at an application rate of 200 ppm: […]

Data set [2] concerns Spodoptera littoralis. As to the kind of experiment: Example B6: Spodoptera littoralis (Egyptian cotton leaf worm), cotton leaf discs sprayed. It is filed as in vivo. The conditions noted are these: foliar, 72 h, application rate 200 ppm, L1 larvae, 3 days after infestation, vs untreated, read-out: control in at least one of the three categories (mortality, anti-feedant effect, or growth inhibition). As to the method:
Example B6: Spodoptera littoralis (Egyptian Cotton Leaf Worm)
Cotton leaf discs were placed onto agar in 24-well microtiter plates and sprayed with aqueous test solutions prepared from 10′000 ppm DMSO stock solutions. After drying the leaf discs were infested with five L1 larvae. The samples were assessed for mortality, anti-feeding effect, and growth inhibition in comparison to untreated samples 3 days after infestation. Control of Spodoptera littoralis by a test sample is given when at least one of the categories mortality, anti-feedant effect, and growth inhibition is higher than the untreated sample.

Data set [3] concerns Euschistus heros. As to the kind of experiment: Example B2: Euschistus heros (neotropical brown stink bug), soybean leaves sprayed. Conditions: 120 h, application rate 200 ppm, N2 nymphs, 5 days after infestation, vs untreated, read-out: control in at least one of the two categories (mortality or growth inhibition). It is filed as in vivo. On the procedure: Example B2: Euschistus heros (Neotropical Brown Stink Bug)
Soybean leaves on agar in 24-well microtiter plates were sprayed with aqueous test solutions prepared from 10′000 ppm DMSO stock solutions. After drying the leaves were infested with N2 nymphs. The samples were assessed for mortality and growth inhibition in comparison to untreated samples 5 days after infestation.
as §1

In data set [4] the test system is Chilo suppressalis. As to the kind of experiment: Example B3: Chilo suppressalis (striped rice stemborer), artificial diet. It is filed as in vivo. The conditions noted are these: 144 h, application rate 200 ppm, L2 larvae, 6 days after infestation, vs untreated, read-out: control in at least one of the three categories (mortality, anti-feedant effect, or growth inhibition). On the procedure: Example B3: Chilo suppressalis (Striped Rice Stemborer)
24-well microtiter plates with artificial diet were treated with aqueous test solutions prepared from 10′000 ppm DMSO stock solutions by pipetting. After drying, the plates were infested with L2 larvae (6-8 per well). The samples were assessed for mortality, anti-feeding effect, and growth inhibition in comparison to untreated samples 6 days after infestation. Control of Chilo suppressalis by a test sample is given when at least one of the categories mortality, anti-feedant effect, and growth inhibition is higher than the untreated sample.

Data set [5] relates to Plutella xylostella. As to the kind of experiment: Example B4: Plutella xylostella (diamond back moth), artificial diet. It is filed as in vivo. The conditions noted are these: 192 h, application rate 200 ppm, eggs, 8 days after infestation, vs untreated, read-out: control in at least one of the two categories (mortality or growth inhibition). As to the method: Example B4: Plutella xylostella (Diamond Back Moth)
24-well microtiter plates with artificial diet were treated with aqueous test solutions prepared from 10′000 ppm DMSO stock solutions by pipetting. After drying, Plutella eggs were pipetted through a plastic stencil onto a gel blotting paper and the plate was closed with it. The samples were assessed for mortality and growth inhibition in comparison to untreated samples 8 days after infestation. The following compounds gave an effect of at least 80% control in at least one of the two categories (mortality or growth inhibition) at an application rate of 200 ppm: […]

SMILES strings stand for the structures. A value given as a limit tells only on which side of the number the result lay.

With `CCNC(=O)c1nccnc1C(C)NC(=O)c1cc(C(F)(F)F)cc(C(F)(F)F)c1` (stereo not shown) [Compound P1, 3-[1-[[3,5-bis(trifluoromethyl)benzoyl]amino]ethyl]-N-ethyl-pyrazine-2-carboxamide], the percent control (mortality or growth inhibition) at 200 ppm in data set [1], in data set [3] and in data set [5] was at least 80% throughout. Also, the percent control (mortality, anti-feedant effect or growth inhibition) at 200 ppm in data set [2] and in data set [4] was at least 80% in each case.
For `CCCCNC(=O)c1nccnc1C(C)NC(=O)c1cc(C(F)(F)F)cc(C(F)(F)F)c1` (stereo not shown) [Compound P3, 3-[1-[[3,5-bis(trifluoromethyl)benzoyl]amino]ethyl]-N-butyl-pyrazine-2-carboxamide], in data set [4], the percent control (mortality, anti-feedant effect or growth inhibition) at 200 ppm was at least 80%.
Consider `CC(NC(=O)c1cc(C(F)(F)F)cc(C(F)(F)F)c1)c1nccnc1C(=O)NC1CC1` (stereo not shown) [Compound P5, 3-[1-[[3,5-bis(trifluoromethyl)benzoyl]amino]ethyl]-N-cyclopropyl-pyrazine-2-carboxamide], for which the percent control (mortality, anti-feedant effect or growth inhibition) at 200 ppm in data set [2] and in data set [4] was at least 80% each time. Moreover, in data set [5], the percent control (mortality or growth inhibition) at 200 ppm is at least 80%.
For the compound `C=CCNC(=O)c1nccnc1C(C)NC(=O)c1cc(C(F)(F)F)cc(C(F)(F)F)c1` (stereo not shown) [Compound P6, N-allyl-3-[1-[[3,5-bis(trifluoromethyl)benzoyl]amino]ethyl]pyrazine-2-carboxamide], the percent control (mortality, anti-feedant effect or growth inhibition) at 200 ppm in data set [4] is at least 80%. Also, the percent control (mortality or growth inhibition) at 200 ppm in data set [5] was at least 80%.
In turn, `CCCNC(=O)c1nccnc1C(C)NC(=O)c1cc(C(F)(F)F)cc(C(F)(F)F)c1` (stereo not shown) [P.2, 3-[1-[[3,5-bis(trifluoromethyl)benzoyl]amino]ethyl]-N-propyl-pyrazine-2-carboxamide] displayed a melting point of 127 °C.
On the same count and under the same terms, next, `COCCNC(=O)c1nccnc1C(C)NC(=O)c1cc(C(F)(F)F)cc(C(F)(F)F)c1` (stereo not shown) [P.4, 3-[1-[[3,5-bis(trifluoromethyl)benzoyl]amino]ethyl]-N-(2-methoxyethyl)pyrazine-2-carboxamide]: 128 °C; `CC(NC(=O)c1cc(C(F)(F)F)cc(C(F)(F)F)c1)c1nccnc1C(=O)Nc1ncccn1` (stereo not shown) [P.7, 3-[1-[[3,5-bis(trifluoromethyl)benzoyl]amino]ethyl]-N-pyrimidin-2-yl-pyrazine-2-carboxamide]: 201 °C; `CCNC(=O)c1nccnc1C(C)NC(=O)c1cc(OCC(F)(F)F)cc(C(F)(F)F)c1` (stereo not shown) [P.8, N-ethyl-3-[1-[[3-(2,2,2-trifluoroethoxy)-5-(trifluoromethyl)benzoyl]amino]ethyl]pyrazine-2-carboxamide]: 136 °C.
Consider `CCNC(=O)c1nccnc1C(C)NC(=O)c1cc(OCC(F)F)cc(C(F)(F)F)c1` (stereo not shown) [P.9, 3-[1-[[3-(2,2-difluoroethoxy)-5-(trifluoromethyl)benzoyl]amino]ethyl]-N-ethyl-pyrazine-2-carboxamide], for which the melting point was found to be 134 °C.
Same read-out and setting: next, `CC(NC(=O)c1cc(C(F)(F)F)cc(C(F)(F)F)c1)c1nccnc1C(=O)Nc1ccc(C#N)cn1` (stereo not shown) [P.10, 3-[1-[[3,5-bis(trifluoromethyl)benzoyl]amino]ethyl]-N-(5-cyano-2-pyridyl)pyrazine-2-carboxamide]: 215 °C.
Still for that read-out and setting: next, `CC(NC(=O)c1cc(C(F)(F)F)cc(C(F)(F)F)c1)c1nccnc1C(=O)NCC#N` (stereo not shown) [P.11, 3-[1-[[3,5-bis(trifluoromethyl)benzoyl]amino]ethyl]-N-(cyanomethyl)pyrazine-2-carboxamide]: 193 °C; `CC(NC(=O)c1cc(C(F)(F)F)cc(C(F)(F)F)c1)c1nccnc1C(=O)Nc1ccc(C#N)cc1` (stereo not shown) [P.12, 3-[1-[[3,5-bis(trifluoromethyl)benzoyl]amino]ethyl]-N-(4-cyanophenyl)pyrazine-2-carboxamide]: 241 °C.
Compound `CCN(C)C(=O)c1nccnc1C(C)NC(=O)c1cc(C(F)(F)F)cc(C(F)(F)F)c1` (stereo not shown) [P.13, 3-[1-[[3,5-bis(trifluoromethyl)benzoyl]amino]ethyl]-N-ethyl-N-methyl-pyrazine-2-carboxamide] registered a melting point of 75 °C.
On the same count and under the same terms, as for `CC(NC(=O)c1cc(C(F)(F)F)cc(C(F)(F)F)c1)c1nccnc1C(=O)N1CCOCC1` (stereo not shown) [P.14, N-[1-[3-(morpholine-4-carbonyl)pyrazin-2-yl]ethyl]-3,5-bis(trifluoromethyl)benzamide], the figure is 81 °C.
`CC(NC(=O)c1cc(C(F)(F)F)cc(C(F)(F)F)c1)c1nccnc1C(=O)NC(C)(C)C#N` (stereo not shown) [P.15, 3-[1-[[3,5-bis(trifluoromethyl)benzoyl]amino]ethyl]-N-(1-cyano-1-methyl-ethyl)pyrazine-2-carboxamide]: the melting point was found to be 195 °C.
On the same count and under the same terms, as for `CC(NC(=O)c1cc(C(F)(F)F)cc(C(F)(F)F)c1)c1nccnc1C(=O)NC1(C#N)CC1` (stereo not shown) [P.16, 3-[1-[[3,5-bis(trifluoromethyl)benzoyl]amino]ethyl]-N-(1-cyanocyclopropyl)pyrazine-2-carboxamide], the figure is 123 °C.
Regarding `COCC(C)(C)NC(=O)c1nccnc1C(C)NC(=O)c1cc(C(F)(F)F)cc(C(F)(F)F)c1` (stereo not shown) [P.17, 3-[1-[[3,5-bis(trifluoromethyl)benzoyl]amino]ethyl]-N-(2-methoxy-1,1-dimethyl-ethyl)pyrazine-2-carboxamide], the melting point worked out at 132 °C.
The same measure, in the same setting: as for `COCC(C)NC(=O)c1nccnc1C(C)NC(=O)c1cc(C(F)(F)F)cc(C(F)(F)F)c1` (stereo not shown) [P.18, 3-[1-[[3,5-bis(trifluoromethyl)benzoyl]amino]ethyl]-N-(2-methoxy-1-methyl-ethyl)pyrazine-2-carboxamide], the figure is 127 °C; as for `CNC(=O)c1nccnc1C(C)NC(=O)c1cc(C(F)(F)F)cc(C(F)(F)F)c1` (stereo not shown) [P.19, 3-[1-[[3,5-bis(trifluoromethyl)benzoyl]amino]ethyl]-N-methyl-pyrazine-2-carboxamide], 164 °C; as for `CC(NC(=O)c1cc(C(F)(F)F)cc(C(F)(F)F)c1)c1nccnc1C(=O)NC1COC1` (stereo not shown) [P.20, 3-[1-[[3,5-bis(trifluoromethyl)benzoyl]amino]ethyl]-N-(oxetan-3-yl)pyrazine-2-carboxamide], 68 °C.
Same read-out and setting: as for `CC(NC(=O)c1cc(C(F)(F)F)cc(C(F)(F)F)c1)c1nccnc1C(=O)NCCC#N` (stereo not shown) [P.21, 3-[1-[[3,5-bis(trifluoromethyl)benzoyl]amino]ethyl]-N-(2-cyanoethyl) pyrazine-2-carboxamide], the figure is 156 °C.

By melting point is commonly meant the temperature of the solid-liquid transition.

Source of the values: patent publication US20230143596A1, “PESTICIDALLY ACTIVE DIAZINE-BISAMIDE COMPOUNDS” (SYNGENTA CROP PROTECTION AG, priority 2020, published 2023).
